Key:
[1] = tested on: mixed H1299 xenograft containing 28% NfsA_Ec cells and 72% WT cells; assay: Tumor growth delay assay, mixed H1299 xenograft; format: in vivo, mice; conditions: single i.p. dose: PR-104 388 µmol/kg; 1-P 1330 µmol/kg; 2-P 750 µmol/kg; 6-P 1330 µmol/kg
Description: These ratios were broadly similar to those observed in HCT116 cells (Figure 2). A mixed H1299 xenograft model containing a minority percentage (28 ± 3.3%) of NfsA_Ec-expressing cells was used in order to rank the efficacy of the prodrugs in vivo. A model such as this necessitates the presence of a robust bystander effect to achieve a tumor growth delay. Tumor-bearing mice were administered a single intraperitoneal dose of prodrugs 1-P, 2-P, and 6-P at the H1299 tumor-bearing MTD. PR-104 was administered at 388 µmol/kg, the human equivalent dose (HED) in mice that provides a plasma AUCfree of PR-104A (38 µM-h) that equates to the human Q3W MTD of 1100 mg/m^2 [22].
An estimated starting dose was determined from related compounds. Animals were promptly euthanized if body weight loss exceeded 20% or if there were clinical signs of severe morbidity. The MTD was defined as the highest dose, at which all animals survived (death rate < 1/6) with no unacceptable morbidity, and where the next dose increment had caused at least one death. Tumors were inoculated onto the flanks of NIH-III nude mice by subcutaneous injection of 10^7 H1299 cells. Tumor-bearing mice were randomized to treatment groups (n = 5 mice per group) when tumors reached treatment size (300–350 mm^3) and injected with a single intraperitoneal dose of pre-prodrug. Tumor size and body weights were measured regularly. Tumor volume was calculated as π(Lxw^2)/6, where L is the major axis and w is the perpendicular minor axis. Animals were euthanized when the tumor volume had increased fourfold relative to pre-treatment volume (RTV4, survival endpoint) or if body weight loss exceeded 20% of the pre-treatment value. Kaplan–Meier plots were constructed, and median time to endpoint was calculated. Treatment efficacy was assessed by comparing the median survival time with untreated animals using the Log-rank test p-test (Sigmaplot version 11.0).
Figure 5 In vivo efficacy of the three lead pre-prodrug compounds in a mixed H1299 xenograft containing 28% NfsA_Ec cells and 72% WT cells. (A) Tumor growth and (B) survival analysis of mice bearing 250 mm^3 H1299 tumors treated with a single intraperitoneal dose of prodrug on day 0. N = 5 animals per group. Control = PBS, PR-104 = 388 µmol/kg; 1-P = 1330 μmol/kg; 2-P = 750 μmol/kg; and 6-P = 1330 μmol/kg. Survival endpoint was 4× start volume (RTV4).

[2] = tested on: SiHa xenografts; assay: Tumor excision assay, clonogenic cell kill of SiHa xenografts; format: in vivo, mice; conditions: 18 h after treatment, PR-104 380 µmol/kg i.p., 6-P 1330 µmol/kg i.p.
Description: The sensitivity of four cancer cell lines to prodrug 6 was determined under aerobic or anoxic conditions using an anti-proliferative IC50 assay. […] We also evaluated the hypoxic activity of 6-P versus PR-104 in vivo using a SiHa xenograft model (Figure 6B).
When tumors reached treatment size (>400 mm^3), mice were treated with drug by a single intraperitoneal injection of pre-prodrug or vehicle. Mice treated with ionizing radiation were exposed to 10 Gray prior to drug treatment, using a cobalt-60 source from an Eldorado G unit. Animals were euthanized 18 h after drug treatment, and tumors were excised and homogenized using sterile scissors until a fine mince was obtained. Following enzymatic dissociation (2.5 mg/mL pronase, 1 mg/mL collagenase, and 0.2 mg/mL DNAase in αMEM + 10% FBS + 1% P/S, 1 mL per 50 mg), cells were plated at concentrations of 10^2–10^5 cells per 60 mm dish and grown for 10 days before colonies were stained with methylene blue (2 g/L in 50% aqueous alcohol). Colonies containing >50 cells were counted as clonogenic survivors. From these values, plating efficiency (colonies/cells plated), number of clonogens per gram of tumor tissue (plating efficiency × total cells), and log cell kill relative to vehicle treated controls (log clonogens per gram) were calculated. Statistical analysis was undertaken using Holm–Sidak’s one-way ANOVA (Sigmaplot version 11.0).
(A) In vitro anti-proliferative activity of 6 in various cancer cell lines under aerobic and anoxic conditions. IC50 values were determined as the concentration of drug required to inhibit cell growth by 50% of untreated controls following 4 h drug exposure and five days regrowth (mean ±SEM of three or more independent determinations). (B) Clonogenic cell kill of SiHa xenografts 18 h after treatment with hypoxia activated prodrugs PR-104 (380 µmol/kg, i.p.) or 6-P (1330 µmol/kg, i.p.) with or without 10 Gy radiation.

[3] = cited from earlier work
[4] = LogD7.4 by low-volume octanol/PBS shake-flask method; format: physicochemical; conditions: n-octanol/PBS; octanol-water partition coefficient, shake-flask method at pH 7.4
Description: Distribution ratios (LogD7.4) were determined by a low-volume octanol/PBS shake-flask method. Briefly, saturated solutions of octanol and PBS were prepared by mixing equal volumes of n-octanol and PBS (pH 7.4) before being left for three days. The octanol and PBS phases were then carefully separated and left to stand for at least 24 h. Stock solutions (0.1–0.5 mM) of each compound were prepared in octanol saturated with PBS. The stock solutions were diluted with octanol saturated with PBS containing and inter-assay control (acridone) to a final compound concentration of 50 μM. Aliquots (450 μL) were then taken in triplicate, and 450 μL of PBS saturated with octanol was added into amber tubes. The tubes were then sealed in parafilm and rotated for 90 min at 30 rpm to equilibrate. After centrifugation (15,000× g, 5 min, 20°C) the octanol and PBS phases were separated into different tubes and the octanol phase diluted with methanol (1:5 v/v). Both phases were analyzed by HPLC (diode-array detector at 364 ± 10 nm) by injecting 50 μL of the PBS phase and 15 μL of the diluted octanol phase. The results were then expressed as the log ratio of the peak areas obtained from the octanol and PBS phases corrected for dilution and injection volume.

[5] = tested on: 100% HCT116 AKR1C3 MCLs; assay: 3D multicellular layer (MCL) assay, 100% HCT116 AKR1C3; format: cell-based, human; conditions: 10 µM prodrug, five hours
Description: Similar to the 3D NfsA_Ec screen, increased lipophilicity also tracked with increased LCK in 100% AKR1C3-expressing MCLs (R = 0.78, R^2 = 0.61). […] These three lead compounds were taken forward into in vivo studies.
Multicellular layers (MCLs) were grown, and bystander effect assays were performed as previously reported.
Figure 4 Lipophilic structure–activity relationship for AKR1C3 in three dimensions. (A) Plating efficiency in 100% HCT116 WT and 100% HCT116 AKR1C3 MCLs exposed to 10 µM prodrug for five hours before dissociation and plating to determine clonogenic survival. (B) Correlation between Log cell kill and LogD7.4. R = 0.78, R^2 = 0.61. Log cell kill = Log CS (control)–Log CS (treated), where CS is the number of clonogenic survivors per MCL.

[6] = tested on: H1299 WT cells; assay: Anti-proliferative IC50 assay, H1299 WT cells; format: cell-based; conditions: Homo sapiens, NCI-H1299, 4 hour drug exposure, regrowth for five days
Description: (§1) The anti-proliferative IC50 was determined as the concentration of prodrug required for 50% inhibition of cell growth, following drug exposure for four hours, then five days regrowth in the absence of drug. Assays were performed under oxic or anoxic conditions as described previously, the latter by using a 5% H2/palladium catalyst scrubbed Bactron anaerobic chamber (Sheldon Manufacturing, Cornelius, OR, USA) to achieve severe anoxia (<10 ppm O2 gas phase) during prodrug exposure.
(§2) Supplementary Table S2. In vitro anti-proliferative activity of the three lead prodrug compounds in H1299 cells expressing E. coli NfsA. IC50 values were determined as the concentration of drug required to inhibit cell growth by 50% of untreated controls following 4 hour drug exposure, with washing and regrowth for five days.
(§3) Compound WT NfsA_Ec Ratio

[7] = tested on: H1299 cells expressing E. coli NfsA; assay: Anti-proliferative IC50 assay, H1299 cells expressing E. coli NfsA; format: cell-based
Description: as §1, §2, §3

[8] = target: T1, purified His6-tagged NfsA_Ec (Escherichia coli, UniProt P17117); assay: Steady-state kinetics of reduction by purified NfsA_Ec; format: biochemical, E. coli; conditions: apparent, measured at 250 µM NADPH
T1 construct: His6; made in house
T1 sequence (P17117 1-240): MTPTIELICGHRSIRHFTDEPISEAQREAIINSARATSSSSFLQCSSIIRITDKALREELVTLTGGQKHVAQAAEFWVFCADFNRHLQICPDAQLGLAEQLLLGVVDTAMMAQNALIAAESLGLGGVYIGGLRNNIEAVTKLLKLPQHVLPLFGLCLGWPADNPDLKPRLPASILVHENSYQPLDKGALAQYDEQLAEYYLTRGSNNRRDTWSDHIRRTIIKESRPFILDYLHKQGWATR
Description: (§4) We next sought to characterize the NfsA_Ec-mediated conversion of lead prodrug 6 in steady-state kinetics assays using purified His6-tagged NfsA_Ec. […] We therefore conducted a preliminary assessment of whether alternative bacterial NTR enzymes might hold promise for further GDEPT improvements.
Supplementary Table S3. Steady-state kinetic parameters* for reduction of compound 6 and PR-104A by NfsA_Ec.
Compound Km (µM) kcat (s-1) kcat/Km (mM-1 s-1)
* Apparent kinetic parameters, measured at 250 µM NADPH
# As previously reported by
NfsA_Ec was purified as a His6-tagged recombinant protein as previously described. Kinetics assays were performed in 60 µl in UVettes (Eppendorf), using the 2 mm light path length. Reactions contained 10 mM Tris-Cl (pH 7.0), 4% DMSO, 0.25 mM NADPH and varying concentrations of PR - 104A or compound 6. Reactions were initiated by addition of 6 µl enzyme and changes in absorbance were measured for 20 s (during linearity). For calculation of Km and kcat, substrate concentrations were varied from ~0.2 x Km to 5 x Km. Molar extinction coefficients of 4,800 or 6,000 M-1 cm-1 were used for compound 6 and PR-104A, respectively. Non-linear regression analysis and Michaelis-Menten curve fitting was performed using Sigmaplot 10.0 (Systat Software Inc.).

[9] = tested on: 47 different NTR candidates; assay: GFP-SOS (DNA damage) response in E. coli SOS-R4 reporter strains expressing nitroreductase candidates; format: cell-based; conditions: 20 µM, six-hour exposure, library of E. coli reporter cells
Description: as §4
Supplementary Figure S2. Identification of alternative nitroreductases able to activate compound 6. Bar graph displaying the fold-induction of GFP in the DNA-damage responsive E. coli reporter strain SOS-R4, following six-hour exposure to 20 µM of compound 6, compared with unchallenged replicates. Individual strains expressed nitroreductase candidates derived from different bacteria, identified by a two-letter suffix as explained in the Materials and Methods. The background SOS response induced by compound 6 in an empty plasmid control strain is indicated by the dashed line. […]
The GFP-SOS response was determined in SOS-R4 [16] by inoculating 200 μl aliquots of LBASG (lysogeny broth supplemented with 100 μgml-1 ampicillin, 50 μgml-1 spectinomycin and 0.2% glucose (w/v)) with selected SOS-R4 nitroreductase-over-expressing strains and incubating overnight at 30 °C, 200 rpm. […] Control and challenge plates were incubated at 30 °C, 200 rpm for 6 h, at which point OD600 and GFP fluorescence (excitation 490 nm/ emission 503 nm) were measured on an Enspire™ 2300 Multilabel Reader (Perkin Elmer, Waltham, MA). […]

SMILES: CS(=O)(=O)OCCN(CCBr)c1c(C(=O)NCCOP(=O)(O)O)cc([N+](=O)[O-])cc1[N+](=O)[O-] [PR-104, 2-[(2-bromoethyl)-2,4-dinitro-6-[[[2-(phosphonooxy)ethyl]amino]carbonyl]anilino]ethyl methanesulfonate, reference compound]
- Tumor growth delay (median time to RTV4) compared to untreated controls [1]: 33%
- Log cell kill, in combination with radiotherapy ([2]; 10 Gy radiation): 3.72
- Log cell kill, single agent [2]: 1.38
- Human Q3W MTD [3]: 1100 mg/m^2

SMILES: CCS(=O)(=O)c1cc([N+](=O)[O-])c(C(=O)N(C)CCO)cc1N(CCBr)CCBr [Compound 6, 5-(Bis(2-bromoethyl)amino)-N-(2-hydroxyethyl)-N-methyl-4-(ethylsulfonyl)-2-nitrobenzamide]
- logD at 90 min [4]: 1.6
- Log cell kill (LCK) [5]: ≤ 0.11
- IC50 [6]: 222 ± 39 µM
- IC50 ([7]; Escherichia coli, NCI-H1299, H1299 NfsA_Ec, 4 hour drug exposure, regrowth for five days): 0.47 ± 0.1 µM
- WT:NfsA_Ec IC50 ratio ([7]; H1299 WT vs H1299 NfsA_Ec): 472 fold
- kcat [8]: 5.5 ± 0.3 s⁻¹
- Activation of the SOS (DNA damage repair) response [9]: broadly activated by members of both the NfsA and NfsB nitroreductase families

From paper PMC8877822, “Interrogation of the Structure–Activity Relationship of a Lipophilic Nitroaromatic Prodrug Series Designed for Cancer Gene Therapy Applications” (Pharmaceuticals, 2022)
